Molecular target: T1, TRPM7 (Mus musculus, UniProt Q923J1)
T1 construct: expressed in transfected cells; host or cells: HEK-293 tSA (HEK-293T) cells, transient transfection with Lipofectamine 2000
Assay: PI uptake cell death assay in TRPM7-expressing HEK-293 cells (type of assay from Example 1)
Assay type: cell-based, murine
Description: The TRPM7 channel provides a pathway for mono- and divalent cations into the cell, and is unique in that it contains a functional C-terminal α-kinase domain. […] The induction of chemical anoxia in host cells such as recombinant HEK293 cells can be used to activate TRPM7. This activation is detectable with the use measurements of cellular calcium accumulation. This is achievable with the use of a fluorescent calcium indicator. Alternatively, this activation can also be measured using radiolabelled Ca2+ (^45Ca^2+) as described previously by Sattler et al. (Sattler et al., 1998) and Aarts et al. (Aarts et al., 2003).
Hoechst 33342 was purchased as a 10 mg/mL solution in water (Molecular Probes Inc., Eugene, Oreg.). Propidium iodide (PI) was purchased as a powder and prepared by dissolving in PBS at 1 mg/mL. PI solutions were stored at 4° C. until use. Hoechst and PI were added directly to cell culture to 5 μg/mL and 10 μg/mL respectively. Cells were incubated at room temperature or at 37° C. for 10 minutes to allow for adequate uptake, and fluorescence observed using a NIKON Eclipse TE2000 inverted microscope and TE-FM Epi-Fluorescence attachment (Nikon Canada).
Untransfected cells or cells transfected with the TRPM7/pTracer or ΔPDZ/pTracer construct were plated onto 24-well plates, 24-hours post-transfection. Untransfected cells were plated at 0.75×10^6 cells/well and transfected cells at 1×10^6 cells/well. The plates were coated with poly-D-lysine to strengthen cell adhesion and to minimize cell loss during washes. Cells were loaded by incubation with 5 μM fluo-3 AM and 0.02% pluronic in HBSS at 37° C. for 30 minutes. Following loading, cells were washed with an aglycaemic HBSS containing, in mM: 20 N-methyl-D-glucamine (NMDG), 121 NaCl, 5 KCl, 10 HEPES acid, 10 HEPES-Na salt, 3 NaHCO3, 1 Na-pyruvate, and 1.8 CaCl2, pH adjusted to 7.4 with HCl. Calcium uptake, as assessed by fluo-3 fluorescence, was measured in response to 0, 5, 10, 15, 20, or 25 mM sodium cyanide (NaCN; Mallinckrodt Baker Inc., Phillipsburg, N.J.) dissolved in aglycaemic HBSS. A 250 mM NaCN stock was prepared in water and stored at room temperature for up to 2 weeks. Measurements of fluo-3 fluorescence were taken over a 2 hour period at 10 minutes intervals at room temperature (22-25° C.). Calcium uptake assays were performed 48 hours post-transfection.
Cell death, as assessed by PI uptake, was examined at the end of the 2 hour calcium uptake assay. Cells were stained with 10 μg/mL PI and PI fluorescence measured using the Fluoroskan microplate reader (λ excitation=590 nm, λ emission=630 nm) and accompanying Ascent software (Thermo Electron Corp.). To obtain a reading of maximal fluorescence (Fmax), 0.5% Triton X-100 was added to each well and allowed to incubate for 20 minutes. Cell death assays were performed 48 hours post-transfection.
Data was entered into Excel (Microsoft, Seattle, Wash.) or SigmaPlot (SPSS Inc., Chicago, Ill.) for analysis. Pooled data are presented as the mean of at least 3 separate experiments±sem. Calcium uptake is expressed as a fraction of baseline uptake: ΔFt=(Ft−Fo)/Fo where Ft is the fluorescence at time t, and Fo is the fluorescence at baseline. Cell death is expressed as a percentage of total cell death: cell death (%)=Ft/Fmax×100 where Ft is the fluorescence at time t and Fmax is the maximal fluorescence obtained by permeabilization with Triton X-100. Concentration-response curves were fit by nonlinear regression with a 4 parameter logistic curve represented by the following equation: y=min+{(max−min)/[1+(x/EC50)n]} where y is the response at concentration x, min is the minimal response, max is the maximal response, EC50 is the concentration required for half-maximal response, and n is the Hill slope. Statistical analysis of data was carried out with a two-tailed Student's t test, or a one-way analysis of variance (ANOVA) followed by post hoc pairwise multiple comparisons testing using the Holm-Sidak method, where appropriate. […]

[1] = Table Y, commercially available compounds
[2] = Table X, the lower the number, the more potent in protecting against cell death
[3] = Table X, the lower the number, the more potent

T1 sequence (Q923J1 whole entry): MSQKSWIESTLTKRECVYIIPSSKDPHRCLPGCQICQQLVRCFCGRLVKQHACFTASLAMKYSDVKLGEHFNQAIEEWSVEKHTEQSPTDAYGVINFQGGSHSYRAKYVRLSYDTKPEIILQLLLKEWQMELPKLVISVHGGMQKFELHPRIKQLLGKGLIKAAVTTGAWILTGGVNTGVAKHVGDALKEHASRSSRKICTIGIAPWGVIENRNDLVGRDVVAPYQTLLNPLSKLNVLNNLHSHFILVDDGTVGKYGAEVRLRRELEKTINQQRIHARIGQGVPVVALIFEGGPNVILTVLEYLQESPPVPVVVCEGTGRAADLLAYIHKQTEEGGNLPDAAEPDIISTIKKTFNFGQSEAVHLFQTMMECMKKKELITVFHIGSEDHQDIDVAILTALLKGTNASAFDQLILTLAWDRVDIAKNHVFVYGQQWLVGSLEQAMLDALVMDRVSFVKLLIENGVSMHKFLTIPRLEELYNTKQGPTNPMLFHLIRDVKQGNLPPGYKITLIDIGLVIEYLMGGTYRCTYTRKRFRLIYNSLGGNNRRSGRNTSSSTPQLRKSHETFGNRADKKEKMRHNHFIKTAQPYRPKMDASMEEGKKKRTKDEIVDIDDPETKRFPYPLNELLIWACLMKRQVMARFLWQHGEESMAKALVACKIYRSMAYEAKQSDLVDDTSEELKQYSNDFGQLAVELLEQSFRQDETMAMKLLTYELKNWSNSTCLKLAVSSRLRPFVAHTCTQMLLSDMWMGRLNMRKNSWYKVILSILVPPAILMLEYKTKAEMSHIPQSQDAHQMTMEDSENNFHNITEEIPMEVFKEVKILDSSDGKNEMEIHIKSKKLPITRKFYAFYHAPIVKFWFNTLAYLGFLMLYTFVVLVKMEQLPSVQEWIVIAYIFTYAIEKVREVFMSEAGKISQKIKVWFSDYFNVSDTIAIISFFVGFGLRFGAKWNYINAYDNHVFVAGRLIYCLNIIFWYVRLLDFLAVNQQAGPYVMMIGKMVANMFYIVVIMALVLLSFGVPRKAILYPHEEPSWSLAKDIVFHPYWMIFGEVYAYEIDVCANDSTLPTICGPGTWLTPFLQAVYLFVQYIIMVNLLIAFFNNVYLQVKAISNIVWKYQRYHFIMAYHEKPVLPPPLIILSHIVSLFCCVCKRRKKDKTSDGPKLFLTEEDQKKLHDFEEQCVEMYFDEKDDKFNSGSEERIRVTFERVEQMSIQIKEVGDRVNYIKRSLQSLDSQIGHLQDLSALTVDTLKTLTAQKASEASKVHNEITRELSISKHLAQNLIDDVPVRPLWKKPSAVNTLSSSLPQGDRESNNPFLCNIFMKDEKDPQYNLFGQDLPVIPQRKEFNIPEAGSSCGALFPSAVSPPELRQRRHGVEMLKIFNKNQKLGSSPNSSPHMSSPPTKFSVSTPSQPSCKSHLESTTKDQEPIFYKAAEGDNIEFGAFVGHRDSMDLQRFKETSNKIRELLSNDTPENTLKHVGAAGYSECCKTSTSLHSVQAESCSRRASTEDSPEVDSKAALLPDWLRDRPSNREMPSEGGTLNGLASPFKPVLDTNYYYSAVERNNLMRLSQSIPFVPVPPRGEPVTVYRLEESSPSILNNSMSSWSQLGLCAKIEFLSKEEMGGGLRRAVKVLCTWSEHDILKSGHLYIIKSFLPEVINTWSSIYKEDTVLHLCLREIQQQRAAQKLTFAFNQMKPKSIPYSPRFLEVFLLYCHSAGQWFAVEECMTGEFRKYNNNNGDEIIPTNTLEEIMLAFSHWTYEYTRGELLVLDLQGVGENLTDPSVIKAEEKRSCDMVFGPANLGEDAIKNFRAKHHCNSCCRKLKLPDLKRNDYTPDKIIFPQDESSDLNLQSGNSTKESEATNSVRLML

Compound | Normalized ratio of PI uptake (5 μM) [1] | Normalized ratio of PI uptake (10 μM) [1] | IC50 [1] [µM] | Normalized ratio of PI uptake (5 μM) [2] | Normalized ratio of PI uptake (10 μM) [3] | IC50 (Table X) [µM]
Cc1c(Cc2ccccc2)c(=O)oc2cc(O)c(Cl)cc12 [STOCK6S- 31467 #2, reference compound] | 0.472 | 0.1 | 12.6 |  |  | 
Cc1ccc2c(c1)CCCN2C(=O)c1sc2cc(C(F)(F)F)ccc2c1Cl [Compound 46] |  |  |  | 0.149 | 0.137 | 1.88
COc1ccc2c(c1)C(c1sc3cccc(C)c3c1Cl)NCC2 (centres unmarked) [Compound 128] |  |  |  | 0.01 | 0.06 | 0.43
Cc1ccc(N(Cc2cccnc2)C(=O)c2sc3ccccc3c2Cl)c(C)c1 [Compound 106] |  |  |  | 0 | 0.054 | 1.2
CC1c2ccsc2CCN1C(=O)c1c(Cl)c2ccccc2n1C (centres unmarked) [T6857127 #7, reference compound] | 0 | 0 | 0.8 |  |  | 
Cc1c(Cc2ccccc2)c(=O)oc2c(CN(C)C)c(O)ccc12 [STOCK1N- 36829 #3, reference compound] | 0.262 | 0.102 | 4.72 |  |  | 
CN1CCc2cc(F)ccc2C1c1sc2ccccc2c1Cl (centres unmarked) [Compound 44] |  |  |  | 0.336 | 0.070 | 4.25
COc1ccc(C)c(N(Cc2ccccn2)C(=O)c2sc3ccccc3c2Cl)c1 [Compound 52] |  |  |  | 0.079 | 0.022 | 1.29
CCN1CCc2cc(OC)c(OC)cc2C1c1sc2ccccc2c1Cl (centres unmarked) [Compound 129] |  |  |  | 0.05 | 0.07 | 2.23
Cc1ccc2c(c1)CCN(C)C2c1sc2ccccc2c1Cl (centres unmarked) [Compound 55] |  |  |  | 0.147 | 0.059 | 2.14
Cc1c(Cc2c(Cl)cccc2Cl)c(=O)oc2cc(O)c(Cl)cc12 [RJF00028SC #11, reference compound] | 0.233 | 0.136 | 3.16 |  |  | 
COc1ccc2c(c1)C(c1sc3ccccc3c1Cl)NCC2 (centres unmarked) [Compound 124] |  |  |  | 0 | 0.06 | 1.13
Cc1c(Cc2cccc(Cl)c2)c(=O)[nH]c2cc(O)cc(O)c12 [Compound 140] |  |  |  | 0.487 | 0.062 | 11.1
O=C(c1sc2ccccc2c1Cl)N(Cc1ccccc1)c1ccccc1 [MCC1879 #5, reference compound] | 0.108 | 0.062 | 1.77 |  |  | 
COc1cc2c(cc1OC)C(c1sc3cc(C(F)(F)F)ccc3c1Cl)NCC2 (centres unmarked) [Compound 72] |  |  |  | 0.000 | 0.000 | 0.39
CCCc1c(Cc2ccc(Cl)c(Cl)c2)c(=O)[nH]c2cc(O)cc(O)c12 [Compound 136] |  |  |  | 0.534 | 0.238 | 18.4
Fc1cccc2c1CCN=C2c1sc2ccccc2c1Cl [Compound 112] |  |  |  | 0.666 | 0.244 | 
COc1cc2ccnc(-c3sc4ccccc4c3Cl)c2cc1OC [Compound 108] |  |  |  | 0.038 | 0.11 | 1.09
Cc1ccc(N(Cc2ccc3ccccc3n2)C(=O)c2sc3ccccc3c2Cl)c(C)c1 [Compound 104] |  |  |  | 0.307 | 0.094 | 0.98
Cc1c(Cc2cccc(Cl)c2)c(=O)oc2cc(O)cc(O)c12 [Compound 77] |  |  |  | 0.071 | 0.003 | 1.99
Clc1cccc2c1CCNC2c1sc2ccccc2c1Cl (centres unmarked) [Compound 125] |  |  |  | 0.363 | 0.122 | 4.69
COc1ccc(C)c(N(Cc2cccc(C)n2)C(=O)c2sc3ccccc3c2Cl)c1 [Compound 102] |  |  |  | 0.206 | 0.059 | 1.61
COc1cc(OC)c2c(C)c(Cc3cccc(Cl)c3)c(=O)[nH]c2c1 [Compound 94] |  |  |  | 0.073 | 0.042 | 0.65
COc1ccc2c(Cl)c(C3=NCCc4cc(OC)c(OC)cc43)sc2c1 [Compound 67] |  |  |  | 0.054 | 0.019 | 0.37
COc1cc2c(cc1OC)C(c1sc3cc(OC)c(OC)cc3c1Cl)NCC2 (centres unmarked) [Compound 126] |  |  |  | 0.012 | 0.059 | 1.03
Cc1cccc2sc(C3NCCc4c(F)cccc43)c(Cl)c12 (centres unmarked) [Compound 127] |  |  |  | 0.038 | 0.044 | 0.93
Cc1c(Cc2c(Cl)cccc2Cl)c(=O)[nH]c2cc(O)cc(O)c12 [Compound 137] |  |  |  | 0.575 | 0.296 | 8.5
CCN(CC)Cc1c(O)ccc2c(C)c(Cc3ccccc3)c(=O)oc12 [STOCK4S- 10213 #1, reference compound] | 0.398 | 0.242 | 4.3 |  |  | 
Cc1ccc2c(c1)CCCN2C(=O)c1sc2ccccc2c1Cl [Compound 2] |  |  |  | 0.179 | 0.018 | 3.27
Fc1ccc2c(c1)CCNC2c1sc2ccccc2c1Cl (centres unmarked) [Compound 43] |  |  |  | 0.060 | 0.020 | 2.54

Reference: US9334256B2, “Agents and methods for treating ischemic and other diseases” (NoNO INC., priority 2011, dated 2016)
